The subject of test [1] is SARS-CoV-2. Briefly: Antiviral activity against SARS-CoV-2 infected in african green monkey Vero E6 cells pretreated for 1 hrs followed by viral infection for 2 hrs and replaced with fresh medium for 48 hrs post infection by qRT-PCR. Format: functional, organism-based. As to conditions: Severe acute respiratory syndrome coronavirus 2, Vero C1008. For orientation: Quantitative PCR measures a nucleic acid by following its amplification.

For test [2], the system named is SARS-CoV-2. Briefly: Antiviral activity against SARS-CoV-2 omicron variant infected in human Calu-3 cells of organoid assessed as intracellular viral RNA level measured after 48 hrs by qRT-PCR analysis. It counts as functional, organism-based. As to conditions: Severe acute respiratory syndrome coronavirus 2, Calu-3, 48 h.

A word on the EC50: it is the concentration at which the effect is half-maximal. For `CCC(CC)COC(=O)[C@H](C)N[P@](=O)(OC[C@H]1O[C@@](C#N)(c2ccc3c(N)ncnn23)[C@H](O)[C@@H]1O)Oc1ccccc1`, in the test with SARS-CoV-2 [1], the EC50 turned out to be 770 nM.

By IC50 is commonly meant the concentration at which inhibition is half-maximal. `CC(C)C(=O)OC[C@H]1O[C@@H](n2cc/c(=N\O)[nH]c2=O)[C@H](O)[C@@H]1O` [MOLNUPIRAVIR]: in the test with SARS-CoV-2 [2], the IC50 worked out at 756 nM.

The values are drawn from ChEMBL document CHEMBL5360552, “Potential RNA-dependent RNA polymerase (RdRp) inhibitors as prospective drug candidates for SARS-CoV-2” (Eur J Med Chem, 2023).
